Experimental data reported in the supplement of paper PMC9938120.

Experiments:
Assay in all cases: drug sensitivity score (DSS3, normalised partial AUC of % inhibition dose-response) (DSS (score)); higher = more sensitive (stronger inhibition of viability); extreme values may be limits of the assay
FMOC02_2 = patient-derived low-grade serous ovarian cancer cells; settings: 72 h; library: FO5A; assay format: 2D, 384-well, CellTiter-Glo
How it was run: (§1)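 Cells were dispensed onto 384-well flat clear-bottom plates already holding compounds at five concentrations over a 10,000-fold range, using patient-derived ovarian cancer cells at passage under 10. Incubation lasted 72 h at 37 °C in 5% CO2, after which CellTiter-Glo viability data were processed in Breeze. Higher drug sensitivity scores, each a partial area under the percent-inhibition dose-response curve divided by the log of the upper asymptote, mean more sensitive cells.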

FMOC02_3 = patient-derived low-grade serous ovarian cancer cells; settings: 72 h; library: FO5A; assay format: 2D, 384-well, CellTiter-Glo
How it was run: as §1

FMOC03 = patient-derived mucinous ovarian cancer cells; settings: 72 h; library: FO5A; assay format: 2D, 384-well, CellTiter-Glo
How it was run: as §1

FMOC06 = patient-derived mucinous ovarian cancer cells; settings: 72 h; library: FO5A; assay format: 2D, 384-well, CellTiter-Glo
How it was run: as §1

FMOC09 = patient-derived high-grade serous ovarian cancer cells; settings: 72 h; library: FO5A; assay format: 2D, 384-well, CellTiter-Glo
How it was run: as §1

FMOC14 = patient-derived high-grade serous ovarian cancer cells; settings: 72 h; library: FO5A; assay format: 2D, 384-well, CellTiter-Glo
How it was run: as §1

FMOC22 = patient-derived mucinous ovarian cancer cells; settings: 72 h; library: FO5A; assay format: 2D, 384-well, CellTiter-Glo
How it was run: as §1

FMOC24 = patient-derived high-grade serous ovarian cancer cells; settings: 72 h; library: FO5A; assay format: 2D, 384-well, CellTiter-Glo
How it was run: as §1

FMOC25_1 = patient-derived low-grade serous ovarian cancer cells; settings: 72 h; library: FO4B; assay format: 2D, 384-well, CellTiter-Glo
How it was run: as §1

FMOC25_2 = patient-derived low-grade serous ovarian cancer cells; settings: 72 h; library: FO5A; assay format: 2D, 384-well, CellTiter-Glo
How it was run: as §1

Row | SMILES | drug sensitivity score (FMOC02_2) | drug sensitivity score (FMOC02_3) | drug sensitivity score (FMOC03) | drug sensitivity score (FMOC06) | drug sensitivity score (FMOC09) | drug sensitivity score (FMOC14) | drug sensitivity score (FMOC22) | drug sensitivity score (FMOC24) | drug sensitivity score (FMOC25_1) | drug sensitivity score (FMOC25_2)
1 | C1=N/C2=N/c3ccc(OCCN4CCCC4)c(c3)COC/C=C/COCc3cccc(c3)C(=C1)N2 [Pacritinib] | 10.1 | 15.2 | 6.7 | 7.6 | 5.5 | 5.2 | 6.2 | 7.95 | 7.8 | 15.2
2 | Cc1[nH]c2ccccc2c1CCNCc1ccc(/C=C/C(=O)NO)cc1 [Panobinostat] | 12.6 | 10.7 | 11.1 | 12.8 | 5.5 | 15.4 | 9.1 | 13.3 | 11.2 | 15.2
3 | Nc1nc2[nH]cc(CCc3ccc(C(=O)N[C@@H](CCC(=O)O)C(=O)O)cc3)c2c(=O)[nH]1 [Pemetrexed] | 0 | 0 | 2.2 | 0.3 | 0 | 0 | 3.4 | 1.55 | 0 | 3.3
4 | NS(=O)(=O)OC[C@@H]1C[C@@H](n2ccc3c(N[C@H]4CCc5ccccc54)ncnc32)C[C@@H]1O [Pevonedistat] | 10.2 | 10.6 | 8.2 | 4.1 | 10.1 | 0.3 | 12.6 | 10.7 | 11.5 | 20.5
5 | CS(=O)(=O)N1CCN(Cc2cc3nc(-c4cccc5[nH]ncc45)nc(N4CCOCC4)c3s2)CC1 [Pictilisib] | 16.8 | 16.1 | 9.4 | 10.6 | 11.9 | 9.2 | 5.1 | 5.35 | 12.9 | 14.3
6 | CO[C@H](C(=O)[C@@H](O)[C@@H](C)O)[C@@H]1Cc2cc3cc(O[C@H]4C[C@@H](O[C@@H]5C[C@@H](O)[C@H](O)[C@@H](C)O5)[C@H](O)[C@@H](C)O4)c(C)c(O)c3c(O)c2C(=O)[C@H]1O[C@H]1C[C@@H](O[C@@H]2C[C@@H](O)[C@@H](O[C@@H]3C[C@](C)(O)[C@H](O)[C@@H](C)O3)[C@@H](C)O2)[C@H](O)[C@@H](C)O1 [Plicamycin] | 9 | 16.7 | 4.6 | 6.2 | 2.6 | 10.1 | 5.1 | 9 | 7 | 29.1
7 | C=CC(=O)N1CCC(Oc2cc3c(Nc4ccc(Cl)c(Cl)c4F)ncnc3cc2OC)CC1 [Poziotinib] | 24.2 | 21.8 | 24.6 | 6.1 | 16.7 | 6.5 | 0.8 | 2.1 | 10.5 | 20.3
8 | CCCCc1nc2cc(/C=C/C(=O)NO)ccc2n1CCN(CC)CC [Pracinostat] | 13.3 | 13.3 | 12.3 | 12.7 | 5.8 | 12.4 | 8.7 | 14.8 | 11.6 | 10.7
9 | COc1cccc(OCCCN)c1-c1cc(Nc2cnc(C#N)cn2)n[nH]1 [Prexasertib] | 15.1 | 18.6 | 11.8 | 12.6 | 19.5 | 22.6 | 19.6 | 24.7 | 15.3 | 19.1
10 | Cn1cc(CNCC2CCN(c3ncc(C(=O)NO)cn3)CC2)c2ccccc21 [Quisinostat] | 10.9 | 10.8 | 10.3 | 9.4 | 4.8 | 10.7 | 8.1 | 13.6 | 9.9 | 11.2
11 | Cc1nc(=O)c2cc(CN(C)c3ccc(C(=O)N[C@@H](CCC(=O)O)C(=O)O)s3)ccc2[nH]1 [Raltitrexed] | 0 | 0 | 1.5 | 0 | 0 | 0.3 | 3.8 | 0.05 | 0.1 | 1.3
12 | CN(C)Cc1ccc(S(=O)(=O)n2ccc(/C=C/C(=O)NO)c2)cc1 [Resminostat] | 9.7 | 7.4 | 8.1 | 6.8 | 3.3 | 8.2 | 6.8 | 6.3 | 3.4 | 7.7
13 | CO[C@H]1C[C@@H]2CC[C@@H](C)[C@@](O)(O2)C(=O)C(=O)N2CCCC[C@H]2C(=O)O[C@H]([C@H](C)C[C@@H]2CC[C@@H](OP(C)(C)=O)[C@H](OC)C2)CC(=O)[C@H](C)/C=C(\C)[C@@H](O)[C@@H](OC)C(=O)[C@H](C)C[C@H](C)/C=C/C=C/C=C/1C [Ridaforolimus] | 11.1 | 13.8 | 4.5 | 5.7 | 4.2 | 3.4 | 9.3 | 0 | 10.3 | 11.8
14 | COc1cc(OC)c(/C=C/S(=O)(=O)Cc2ccc(OC)c(NCC(=O)O)c2)c(OC)c1 [Rigosertib] | 16.4 | 20.5 | 18.2 | 14.3 | 15.4 | 0.1 | 16.1 | 6.5 | 14.3 | 12
15 | C=CC(=O)Nc1cccc(Nc2nc(Nc3ccc(N4CCN(C(C)=O)CC4)cc3OC)ncc2C(F)(F)F)c1 [Rociletinib] | 12.4 | 11.7 | 8.7 | 6.7 | 8.4 | 5.2 | 5.2 | 2.45 | 9.2 | 9.4
16 | C/C=C1\NC(=O)[C@H]2CSSCC/C=C/[C@H](CC(=O)N[C@H](C(C)C)C(=O)N2)OC(=O)[C@H](C(C)C)NC1=O [Romidepsin] | 26.3 | 32.6 | 28.3 | 27.6 | 17.6 | 28.7 | 26.3 | 32.9 | 30.1 | 28.9
17 | CN(C)C[C@@H]1CCn2cc(c3ccccc32)C2=C(C(=O)NC2=O)c2cn(c3ccccc23)CCO1 [Ruboxistaurin] | 9.7 | 12.8 | 3 | 8.7 | 7.5 | 6.8 | 3.2 | 6.45 | 5.4 | 9.3
18 | CN1CCC(CNc2ccc3ncc(-c4cccc(OC(F)(F)F)c4)n3n2)CC1 [SGI-1776] | 9.2 | 8.8 | 6.1 | 6.5 | 4.5 | 5 | 5.9 | 8.05 | 7.4 | 7.4
19 | CN(CC(=O)N(Cc1ccc(C2CCCCC2)cc1)c1ccc(C(=O)O)cc1)S(=O)(=O)c1c(F)c(F)c(F)c(F)c1F [SH-4-54] | 9.3 | 8.8 | 6.2 | 9 | 10.3 | 5.9 | 5.3 | 6.2 | 6.9 | 5.5
20 | CCc1c2c(nc3ccc(O)cc13)-c1cc3c(c(=O)n1C2)COC(=O)[C@]3(O)CC [SN-38] | 21.3 | 32.5 | 20.2 | 21.8 | 15.1 | 20.4 | 31 | 24.8 | 24.4 | 29.1
21 | CC(C)(C)c1cnc(CSc2cnc(NC(=O)C3CCNCC3)s2)o1 [SNS-032] | 19.4 | 25.5 | 17.4 | 23.2 | 11.6 | 17.9 | 12 | 17.9 | 20.8 | 25.4
22 | Cc1cc2c(C(=O)NC[C@H](C)c3ccccc3)c(O)c(O)cc2c(O)c1-c1c(C)cc2c(C(=O)NC[C@H](C)c3ccccc3)c(O)c(O)cc2c1O [Sabutoclax] | 5.2 | 9.1 | 9.6 | 5.6 | 9.3 | 12.6 | 10.8 | 6.6 | 6.2 | 5.3
23 | CNC(=O)CN1CCC(Oc2cc3c(Nc4cccc(Cl)c4F)ncnc3cc2OC)CC1 [Sapitinib] | 14 | 13.8 | 14.7 | 0.3 | 10.4 | 4.2 | 0.9 | 0.2 | 9.4 | 10
24 | CN1CCN(CCOc2cc(OC3CCOCC3)c3c(Nc4c(Cl)ccc5c4OCO5)ncnc3c2)CC1 [Saracatinib] | 15.6 | 16.7 | 9.4 | 4.6 | 11 | 5 | 0.6 | 4.7 | 5.3 | 10
25 | O=C(/C=C\n1cnc(-c2cc(C(F)(F)F)cc(C(F)(F)F)c2)n1)NNc1cnccn1 [Selinexor] | 15.8 | 18.2 | 12.3 | 21.6 | 12.8 | 10.7 | 18.9 | 21.5 | 15.1 | 21.4
26 | Cn1cnc2c(F)c(Nc3ccc(Br)cc3Cl)c(C(=O)NOCCO)cc21 [Selumetinib] | 12.9 | 13.7 | 11.4 | 14.6 | 10.6 | 1.3 | 7.2 | 0.4 | 7.3 | 8.1
27 | O=C(O)c1ccc2c(c1)nc(Nc1cccc(Cl)c1)c1ccncc12 [Silmitasertib] | 4.1 | 6.3 | 7 | 6.9 | 4.5 | 4.9 | 6 | 2.55 | 3.6 | 5.2
28 | CCS(=O)(=O)c1cccc(-c2cc(C(=O)NC3CCN(C)CC3)c(C)c3[nH]c4ncc(C)cc4c23)c1 [TAK-901] | 1 | 5.3 | 1.2 | 2 | 7 | 0 | 1.2 | 1.15 | 2.2 | 5.7
